Laboratory results: US11506670B2, “Method of genome-wide direct identification of electrophile-sensing targets” (Cornell University, priority 2018, dated 2022)
Where a SMILES comes first, the peptide text is derived from it. The star is where a group is joined. Cbz = O=C(OCc1ccccc1)*

Experiments:
[1] = Chemical stability of HNE(alkyne); type: physicochemical; conditions: air
Protocol: (iv) Isolate the pure product via flash chromatography using hexanes: Et20 (4:1 v/v) as eluent (Rf=0.5 in hexanes: Et2O 4:1). […] The purified material should be characterized promptly and during this time may be stored under Ar at room temperature. For long-term storage, HNE(alkyne) should be stored as one-shot aliquots in DMSO at −80° C. and must be used immediately once thawed.

γ-H2AX [2] = test: T-REX in zebrafish embryos, whole-mount γ-H2AX immunofluorescence; type: in vivo, zebrafish (Danio rerio); conditions: 3 h post light exposure
Protocol: (§1) Fertilized eggs at the 1-2 cell stage from casper zebrafish were injected with mRNA (1.6 mg/ml) into the yolk sack. Immediately after injection, embryos were pooled, and separated into two petri dishes (10 cm) filled with 30 mL 10% Hank's salt solution with methylene blue and penicillin (100 U/mL)/streptomycin (100 μg/ml). To one set was added the HaloTag-targetable photocaged precursor to HNE (Ht-PreHNE, hereafter) (<15 μM) and the other DMSO in the dark. Embryos were maintained at 28° C. in the dark for 28 h then they were washed in 10% Hank's solution with no methylene blue/antibiotic (3 times for 30 min each). Embryos were moved to 6-well plates. Half of the embryos (Ht-preHNE-treated or -untreated) were irradiated with UV light (5 min), and the other half of each set was not irradiated. Embryos were left for 8 h at which point they were euthanized, washed with cold 1×DPBS and dechorionated (and deyolked if protein analysis was to be undertaken).
DDR preconditioning occurs in zebrafish embryos. […] Subsequently, the fish were fixed and γ-H2AX levels were measured using whole-mount immunofluorescence.

PTEN = target: T1, PTEN (Homo sapiens, UniProt P60484); test: InPAkt FRET biosensor assay of PIP3 after PTEN-targeted T-REX; type: cell-based
T1 construct: host or cells: HEK-293
T1 sequence (P60484 whole entry): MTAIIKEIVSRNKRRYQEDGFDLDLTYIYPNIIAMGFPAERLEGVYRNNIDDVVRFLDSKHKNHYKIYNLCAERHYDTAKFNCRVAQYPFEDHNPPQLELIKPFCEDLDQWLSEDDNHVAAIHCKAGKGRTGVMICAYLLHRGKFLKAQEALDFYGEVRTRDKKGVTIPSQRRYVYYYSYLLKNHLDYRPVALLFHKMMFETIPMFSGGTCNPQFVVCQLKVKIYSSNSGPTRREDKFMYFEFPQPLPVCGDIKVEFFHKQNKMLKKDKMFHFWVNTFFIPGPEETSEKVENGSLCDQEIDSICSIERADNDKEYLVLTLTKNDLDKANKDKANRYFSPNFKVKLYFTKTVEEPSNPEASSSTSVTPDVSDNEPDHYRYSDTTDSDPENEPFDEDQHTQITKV
Protocol: (ii) Transfect each plate with 1000 ng of Halo-PTEN and 1000 ng of InPAkt reporter plasmid. Transfect with TransIT-2020 following the manufacturer's protocol.
(iv) Treatment of cells with T-REX™ delivery photocaged precursor, photo-uncaging and cell fixing. Treat the cells with photocaged precursor as described in Section 2, Step 39A. The amounts of reagents used should be scaled up for 4×35 mm adherent culture dish.
(v) Irradiate the cells with UV light only for 3 min. After shining light on the sample. Incubate the plates at 37° C. for 10 hours. Longer irradiation time will result in photobleaching of the FRET reporter proteins.
(vi) Imaging and data analysis. […] Blue laser (408 nm) is used for excitation. Record the signals in cyan channel (463-498 nm) and yellow channel (525-620 nm).
(vii) Analyse the images using ImageJ software (NIH). To do this, determine the average cyan and yellow fluorescence intensity for each cell by drawing a free hand circle around the image. Repeat this for each condition such that 150-200 cells were analyzed each time from multiple different frames. Calculate the ratio of mean yellow to mean cyan fluorescence intensity for each condition, then plot these values and analyse the results using prism. To get reliable results, it is important to collect images from at least 150 individual cells per condition.

[3] = test system: Ube2V2 ubiquitination and cellular Ub pools; test: Ubiquitination analysis by IP, K63-TUBE pulldown and western blot in HEK293T cells; type: cell-based, human; conditions: for amount of ubiquitinated-Ube2V2 formed upon targeted-HNEylation: proteasome inhibitor treatment with T-REX
Protocol: Cells were lysed in 1×RIPA buffer containing in final concentrations 1× Protease inhibitor, 1 mM sodium orthovanadate and 1 mM PMSF, by rapid freeze-thaw (×3). Cell debris was removed and the supernatant was collected after centrifugation at 18,000×g for 20 min at 4° C. Protein concentration was determined using Bradford assay. 30-50 μg of total lysates were subjected to SDS-PAGE and the gel was transferred onto a PVDF membrane at 100 V for 1 h at 4° C. or at 40 V overnight at 4° C. Membrane was blocked with 10% milk and probed with various antibodies at the indicated dilutions (Table 4, above).
HEK 293T cells were seeded in 2×60 cm^2 plates. After the cells reached 60% confluence (˜18-24 h), the old media was replaced with 8 mL of fresh complete media. Cells were transfected with 7.5 μg of the designated Halo clone and 30 μL PEI (1 mg/mL) in 600 μL in Opti-MEM media for 24-36 h after which the cells were treated with 25 μM Ht-PreHNE for 2.5 h. Rinsing and light shining protocol were as described above. Cells were harvested, pooled, washed twice with chilled 1×DPBS and flash frozen. Cell lysis was performed in 100-200 μL per 1.5×10^6 cells of either: lysis buffer [containing in final concentrations 50 mM HEPES (pH 7.6), 150 mM NaCl, 1% Nonidet P-40 and 1× Roche cOmplete, mini, EDTA-free protease inhibitor cocktail] for Flag pull down; or RIPA buffer [containing in final concentrations 50 mM HEPES (pH 7.6), 150 mM NaCl, 1% Nonidet P-40, 0.1% SDS, 0.25% sodium deoxycholate, and 1× Roche cOmplete, mini, EDTA-free protease inhibitor cocktail] for HA pull down, followed by rapid freeze-thaw cycles (×3). Lysate was clarified by centrifugation at 18,000×g for 10 min at 4° C. Total protein concentration was determined using Bradford assay with BSA as standard. The lysate was subsequently diluted to 2 mg/mL with binding buffer containing in final concentrations 50 mM HEPES (pH 7.6), 150 mM NaCl, 1× Roche cOmplete, mini, EDTA-free protease inhibitor cocktail, and 0.1% Tween-20. This diluted lysate was subjected to either 50-100 μL bed volume of ANTI-FLAG® M2 affinity gel (A2220, Sigma) or monoclonal anti-HA-agarose (clone HA-7, A2095, Sigma) that had been pre-equilibrated with the binding buffer above. The sample was incubated with beads for 2-3 h at 4° C. by end-over-end rotation after which time the supernatant was removed post-centrifugation at 1000×g (anti-FLAG pull down) or 5000×g (anti-HA pull down) for 3 min. The beads were washed three times at 4° C. with 500 μL wash buffer containing in final concentrations 50 mM HEPES (pH 7.6), 150 mM NaCl, 1× Roche cOmplete, mini, EDTA-free protease inhibitor cocktail, and 0.1% Tween-20, using end-over-end rotation over 10 min during each wash. The bound protein was eluted by either incubating with 0.15 mg/mL 3× flag peptide for 2 h at 4° C. (anti-Flag pull down) or by boiling the beads at 98° C. for 10 min with 30 μL of 3× Laemmeli dye containing 6% βME (anti-HA pull down). The sample was subjected to SDS-PAGE and transferred to a PVDF membrane for western blot analysis described above.
Cells were grown and transfected as described above. After T-REX™ delivery, cells were harvested and lysed in 100-200 μL (˜1.5×10^6 cells) of lysis buffer [containing in final concentrations 50 mM HEPES (pH 7.6), 300 nM Biotin K63-TUBE, 150 mM NaCl, 5 mM EDTA, 3 mM 1,10-phenanthroline, 5 mM NEM, 20 μM PR-619, 1% Nonidet P-40 and 1× Roche cOmplete, mini, EDTA-free protease inhibitor cocktail] according to manufactures' manual (Biotin K63 TUBE, Lifesensors). Lysate was clarified by centrifugation at 18,000×g for 10 min at 4° C. Total protein concentration was determined using Bradford assay using BSA as standard. […]

γ-H2AX [4] = test: γ-H2AX immunofluorescence in HEK293T cells; type: cell-based, human
Protocol: Cells were grown to 70% confluence in 35 mm glass-bottomed dishes and transfected with HaloTagged plasmids. T-REX™ delivery was performed as mentioned above. […] The fixative was aspirated and the cells washed three times with 1×DPBS with 5-min incubation at room temperature. Blocking and permeabilization was performed in one-step by incubation at 37° C. for 1 h in 1×DPBS containing 3% BSA and 0.2% Triton X-100. Cells were subsequently incubated with primary antibody (1:300, Table 4) in incubation buffer (1% BSA, 0.02% Triton X-100 in 1×DPBS) for 2 h at room temperature. Cells were rinsed 3 times with 1×DPBS with 5 min incubation for each wash and subsequently incubated in dark for 1 h at room temperature with corresponding second antibody (1:1000, Table 4) in incubation buffer. Cells were rinsed 3 times with 1×DPBS with 5 min incubation for each rinse. DAPI (Sigma) was freshly prepared in 1×DPBS from 2 mg/mL wt./v stock solution in water and added to the wells at the final concentration of 0.2 μg/mL. The samples were incubated in dark for 1 min and washed once with 1×DPBS and stored at 4° C. in dark till images were taken using a Zeiss LSM 710 meta confocal fluorescence microscope. Image analysis was performed using Image-J (NIH).

zebrafish embryos = test: Zebrafish embryo morphology and survival, stereomicroscope; type: in vivo, zebrafish (Danio rerio)
Description: Fish were then dechorionated, deyolked, lysed and HNEylated proteins were captured by Click coupling with biotin-azide and subsequent streptavidin pulldown (see workflow in FIG. 4A, Clicking with biotin-azide). HNEylation of Ube2V2 in fish also led to polyubiquitination of Ube2V2, indicating mechanistic conservation between fish and humans, and functional relevance of this electrophile regulatory pathway in vivo. Also see FIG. 14C. […] After 36-h fish were dechorionated and imaged using a stereomicroscope. Scale bars, 545 μm.
as §1, with “Embryos were left for 8 h at which point they were euthanized, washed with cold 1×DPBS and dechorionated (and deyolked if protein analysis was to be undertaken).” left out

Ube2N = test: Lentiviral shRNA knockdown of Ube2N, western blot; type: cell-based, human
Protocol: HEK293T packaging cells were seeded and grown overnight in antibiotic free media in 6 well plates. At 80% confluence, each well was transfected with packaging plasmid (pCMV-R8.74psPAX2, 500 ng), envelope plasmid (pCMV-VSV-G, 50 ng) and pLKO vector (500 ng) using TransIT.LT1 as per the manufacturer's protocol. After 18 h, media were removed and replaced with 20% serum containing media. After 24 h, media containing viruses were collected, spun down and passed through a 0.6 micron filter and stored at −80° C. or used directly.
Cells in log phase were treated with 0.6 ml of virus supernatant (from above) in 8 μg/ml polybrene in a total of 6 ml of media in a 6-well plate. After 24 h, media were removed and replaced with media containing 2 μg/ml puromycin (which was completely toxic to all lines used in this study). Cells were cultured until the plate was confluent, then cells were split and moved to a 10 cm dish in 2 μg/ml puromycin containing media and grown again until reaching confluence. At this, the line was considered to be “selected”, and target gene expression was analyzed by western blot and compared to shRNA controls. […]
Cells were lysed in 1×RIPA buffer containing in final concentrations 1× Protease inhibitor, 1 mM sodium orthovanadate and 1 mM PMSF, by rapid freeze-thaw (×3). […] Protein concentration was determined using Bradford assay. […]

Q: Which stability [1] does the source give for `C#CCCCC(O)C=CC=O` (stereo not drawn) [HNE(alkyne), 4-hydroxynonenal alkyne] here?
A: highly unstable to air-oxidation and polymerization

Q: Which “γ-H2AX levels in zebrafish embryos” value (γ-H2AX [2]) does the source give for `C#CCCCC(O)/C=C/COc1c(CC(=O)NCCOCCOCCCCCCCl)ccc2c1C(=O)c1ccccc1C2=O` (stereo not drawn) [Ht-PreHNE] here?
A: regulates γ-H2AX levels in zebrafish

Q: What about the FRET signal (PTEN; T-REX on Halo-PTEN vs light alone) of the same compound?
A: selectively enhances FRET signal

Q: And the “YFP:CFP emission ratio” value (PTEN; precursor treatment alone, no light)?
A: did not perturb the emission ratio significantly

Q: Which “pan cellular poly-Ub-pools” value ([3]; HEK293T) does the source give for `CC(C)C[C@@H](C=O)NC(=O)[C@H](CC(C)C)NC(=O)[C@H](CC(C)C)NC(=O)OCc1ccccc1` [MG132] (Cbz-Leu-Leu-Leu-aldehyde) here?
A: elevated pan-Ub-pools

Q: And the “amount of ubiquitinated-Ube2V2 formed upon targeted-HNEylation” value [3]?
A: had no effect on the amount of ubiquitinated-Ube2V2

Q: With `CO[C@@]12[C@H](COC(N)=O)C3=C(C(=O)C(C)=C(N)C3=O)N1C[C@@H]1N[C@@H]12` [Mitomycin-C] as the compound, how does the “γ-H2AX in Ube2V2-C69S-expressing and Ube2N-deficient cells” value (γ-H2AX [4]) read?
A: still upregulated γ-H2AX

Q: And the γ-H2AX upregulation (γ-H2AX [4]; positive control)?
A: 3-4 fold

Q: What about the “γ-H2AX levels in zebrafish embryos” value (γ-H2AX [2]) of the same compound?
A: high level of γ-H2AX-expression relative to untreated fish

Q: What about the “embryo deformity / death” value (zebrafish embryos) of the same compound?
A: severely deformed or died during treatment

Q: Which results are given for `N#CSc1cc(SC#N)c(N)nc1N` [PR-619]?
A: K63-linked total cellular Ub pools ([3]; HEK293T): promoted elevation of K63-ubiquitination; ubiquitination of Ube2V2 wt vs C69S ([3]; HEK293T): promote ubiquitination of Ube2V2(C69S) as efficiently as wt-Ube2V2

Q: With `CC(C)C[C@H](NC(=O)[C@H](Cc1ccccc1)NC(=O)c1cnccn1)B(O)O` [bortezomib] as the compound, how does the “pan cellular poly-Ub-pools” value ([3]; HEK293T) read?
A: elevated pan-Ub-pools

Q: And the “amount of ubiquitinated-Ube2V2 formed upon targeted-HNEylation” value [3]?
A: had no effect on the amount of ubiquitinated-Ube2V2

Q: Which Ube2N knockdown strength (Ube2N) does the source give for “#18: shRNA targeting Ube2N in pLKO1 vector (SEQ ID NO: 65) (CCGGGCTGAGGCATTTGTGAGTCTTCTCGAGAAGACTCACAAATGCCTCAGCTTTTT)” here?
A: weaker knockdown
